Reference: patent US8101647B2, “Spiro-oxindole compounds and their use as therapeutic agents” (Xenon Pharmaceuticals Inc., priority 2008, dated 2012)

Experiments:
sodium channel = assay: Guanidine influx assay; format: cell-based, human or rat; conditions: known cell line that expresses a sodium channel; read-out: IC50 Activity Level
Description: This example describes an in vitro assay for testing and profiling test agents against human or rat sodium channels stably expressed in cells of either an endogenous or recombinant origin. The assay is also useful for determining the IC50 of a sodium channel blocking compound. The assay is based on the guanidine flux assay described by Reddy, N. L., et al., J. Med. Chem. (1998), 41(17):3298-302.
The guanidine influx assay is a radiotracer flux assay used to determine ion flux activity of sodium channels in a high-throughput microplate-based format. The assay uses ^14C-guanidine hydrochloride in combination with various known sodium channel modulators, to assay the potency of test agents. Potency is determined by an IC50 calculation. Selectivity is determined by comparing potency of the compound for the channel of interest to its potency against other sodium channels (also called ‘selectivity profiling’).
Each of the test agents is assayed against cells that express the channels of interest. Voltage gated sodium channels are either TTX sensitive or insensitive. This property is useful when evaluating the activities of a channel of interest when it resides in a mixed population with other sodium channels. The following Table 1 summarizes cell lines useful in screening for a certain channel activity in the presence or absence of TTX.
It is also possible to employ recombinant cells expressing these sodium channels. Cloning and propagation of recombinant cells are known to those skilled in the art (see, for example, Klugbauer, N, et al., EMBO J. (1995), 14(6):1084-90; and Lossin, C., et al., Neuron (2002), 34, pp. 877-884).
Cells expressing the channel of interest are grown according to the supplier or in the case of a recombinant cell in the presence of selective growth media such as G418 (Gibco/Invitrogen). The cells are disassociated from the culture dishes with an enzymatic solution (1×) Trypsin/EDTA (Gibco/Invitrogen) and analyzed for density and viability using haemocytometer (Neubauer). Disassociated cells are washed and resuspended in their culture media then plated into Scintiplates (Beckman Coulter Inc.) (approximately 100,000 cells/well) and incubated at 37° C./5% CO2. for 20-24 hours. After an extensive wash with Low sodium HEPES-buffered saline solution (LNHBSS) (150 mM Choline Chloride, […] (Sigma), 1 mM Calcium Chloride, 5 mM Potassium Chloride, 1 mM Magnesium Chloride, 10 mM Glucose) agents diluted with LNHBSS are added to each well. (Varying concentrations of test agent may be used). The activation/radiolabel mixture contains aconitine (Sigma) to increase the percentage of time that the sodium channels are open, and ^14C-guanidine hydrochloride (ARC) to measure flux through the voltage-gated sodium channels.
After loading the cells with test agent and activation/radiolabel mixture, the Scintiplates are incubated at ambient temperature. Following the incubation, the Scintplates are extensively washed with LNHBSS supplemented with guanidine (Sigma). The Scintiplates are dried and then counted using a Wallac MicroBeta TriLux (Perkin-Elmer Life Sciences). The ability of the test agent to block sodium channel activity is determined by comparing the amount of ^14C-guanidine present inside the cells expressing the different sodium channels.
The IC50 value of a test agent for a specific sodium channel may be determined using the above general method. […] Typically the mid-point concentration of test agent is set at 1 μM, and sequential concentrations of half dilutions greater or smaller are applied (e.g. 0.5 μM; 5 μM and 0.25 μM; 10 μM and 0.125 μM; 20 μM etc.). The IC50 curve is calculated using the 4 Parameter Logistic Model or Sigmoidal Dose-Response Model formula (fit=(A+((B−A)/(1+((C/x)^D)))).
The fold selectivity, factor of selectivity or multiple of selectivity, is calculated by dividing the IC50 value of the test sodium channel by the reference sodium channel, for example, NaV1.5. […]

[1] = test system: inactivated state of the channel of interest (sodium channel); assay: Electrophysiological assay (whole cell voltage clamp); format: cell-based; conditions: affinity for the inactivated state of the channel
Experimental: Cells expressing the channel of interest are cultured in DMEM growth media (Gibco) with 0.5 mg/mL G418, +/−1% PSG, and 10% heat-inactivated fetal bovine serum at 37° C. and 5% CO2. For electrophysiological recordings, cells are plated on 10 mm dishes.
Whole cell recordings are examined by established methods of whole cell voltage clamp (Bean et al., op. cit.) using an Axopatch 200B amplifier and Clampex software (Axon Instruments, Union City, Calif.). All experiments are performed at ambient temperature. Electrodes are fire-polished to resistances of 2-4 Mohms Voltage errors and capacitance artifacts are minimized by series resistance compensation and capacitance compensation, respectively. Data are acquired at 40 kHz and filtered at 5 kHz. The external (bath) solution consists of: NaCl (140 mM), KCl (5 mM), CaCl2 (2 mM), MgCl2 (1 mM), HEPES (10 mM) at pH 7.4. The internal (pipette) solution consists of (in mM): NaCl (5), CaCl2 (0.1), MgCl2 (2), CsCl (10), CsF (120), HEPES (10), EGTA (10), at pH 7.2.
To estimate the steady-state affinity of compounds for the resting and inactivated state of the channel (Kr and Ki, respectively), 12.5 ms test pulses to depolarizing voltages from −60 to +90 m V from a holding potential of −120 m V is used to construct current-voltage relationships (I-V curves). A voltage near the peak of the IV-curve (−30 to 0 m V) is used as the test pulse throughout the remainder of the experiment. Steady-state inactivation (availability) curves are then constructed by measuring the current activated during a 8.75 ms test pulse following 1 second conditioning pulses to potentials ranging from −120 to −10 mV.
The steady-state voltage-dependence of binding of a compound to a sodium channel is determined by measuring the blockage of the ionic current at two holding potentials. Binding to rested-state channels is determined by using a holding potential of −120 mV, so that maximal availability is achieved. Binding to inactivated-state channels is evaluated at a holding potential such that only 10% of the channels are available to open. The membrane potential is held at this voltage for at least 10 seconds so that drug binding can equilibrate.
The apparent dissociation constant at each voltage is calculated with the equation:
[formula] where Kd is the dissociation constant (either Kr or Ki), and [Drug] is the concentration of the test compound.
The Example numbers provided in Table 3 correspond to the Examples herein: […]

CYP3A4 = biological target: T1, CYP3A4 (Homo sapiens, UniProt P08684); assay: Cytochrome P450 (CYP450) inhibition assay, fluorescence-based; format: in vitro ADME; conditions: recombinant CYP3A4 (P450 Baculosomes), probe Vivid substrate (fluorogenic)
T1 construct: purchased Invitrogen Corporation (Vivid CYP450 Screening Kit)

CYP2C19 = CYP2C19 (Homo sapiens, UniProt P33261)
CYP2C9 = CYP2C9 (Homo sapiens, UniProt P11712)
CHO-K1 (Nav1.4) = CHO-K1 (Nav1.4) (Cricetulus griseus, UniProt A0A9J7H6F9); format: cell-based, Chinese Hamster
L6 (Nav1.4 and 1.5) = format: cell-based, rat
[2] = test system: SH-SY5Y (Nav1.9 and Nav1.7); format: cell-based, Human
SK-N-BE2C (Nav1.8) = SK-N-BE2C (Nav1.8) (Homo sapiens, UniProt Q9Y5Y9); format: cell-based
PC12 (Nav1.2) = PC12 (Nav1.2) (Rattus norvegicus, UniProt P04775)
Chain of PC12 (Nav1.2) (P04775 whole entry, looked up): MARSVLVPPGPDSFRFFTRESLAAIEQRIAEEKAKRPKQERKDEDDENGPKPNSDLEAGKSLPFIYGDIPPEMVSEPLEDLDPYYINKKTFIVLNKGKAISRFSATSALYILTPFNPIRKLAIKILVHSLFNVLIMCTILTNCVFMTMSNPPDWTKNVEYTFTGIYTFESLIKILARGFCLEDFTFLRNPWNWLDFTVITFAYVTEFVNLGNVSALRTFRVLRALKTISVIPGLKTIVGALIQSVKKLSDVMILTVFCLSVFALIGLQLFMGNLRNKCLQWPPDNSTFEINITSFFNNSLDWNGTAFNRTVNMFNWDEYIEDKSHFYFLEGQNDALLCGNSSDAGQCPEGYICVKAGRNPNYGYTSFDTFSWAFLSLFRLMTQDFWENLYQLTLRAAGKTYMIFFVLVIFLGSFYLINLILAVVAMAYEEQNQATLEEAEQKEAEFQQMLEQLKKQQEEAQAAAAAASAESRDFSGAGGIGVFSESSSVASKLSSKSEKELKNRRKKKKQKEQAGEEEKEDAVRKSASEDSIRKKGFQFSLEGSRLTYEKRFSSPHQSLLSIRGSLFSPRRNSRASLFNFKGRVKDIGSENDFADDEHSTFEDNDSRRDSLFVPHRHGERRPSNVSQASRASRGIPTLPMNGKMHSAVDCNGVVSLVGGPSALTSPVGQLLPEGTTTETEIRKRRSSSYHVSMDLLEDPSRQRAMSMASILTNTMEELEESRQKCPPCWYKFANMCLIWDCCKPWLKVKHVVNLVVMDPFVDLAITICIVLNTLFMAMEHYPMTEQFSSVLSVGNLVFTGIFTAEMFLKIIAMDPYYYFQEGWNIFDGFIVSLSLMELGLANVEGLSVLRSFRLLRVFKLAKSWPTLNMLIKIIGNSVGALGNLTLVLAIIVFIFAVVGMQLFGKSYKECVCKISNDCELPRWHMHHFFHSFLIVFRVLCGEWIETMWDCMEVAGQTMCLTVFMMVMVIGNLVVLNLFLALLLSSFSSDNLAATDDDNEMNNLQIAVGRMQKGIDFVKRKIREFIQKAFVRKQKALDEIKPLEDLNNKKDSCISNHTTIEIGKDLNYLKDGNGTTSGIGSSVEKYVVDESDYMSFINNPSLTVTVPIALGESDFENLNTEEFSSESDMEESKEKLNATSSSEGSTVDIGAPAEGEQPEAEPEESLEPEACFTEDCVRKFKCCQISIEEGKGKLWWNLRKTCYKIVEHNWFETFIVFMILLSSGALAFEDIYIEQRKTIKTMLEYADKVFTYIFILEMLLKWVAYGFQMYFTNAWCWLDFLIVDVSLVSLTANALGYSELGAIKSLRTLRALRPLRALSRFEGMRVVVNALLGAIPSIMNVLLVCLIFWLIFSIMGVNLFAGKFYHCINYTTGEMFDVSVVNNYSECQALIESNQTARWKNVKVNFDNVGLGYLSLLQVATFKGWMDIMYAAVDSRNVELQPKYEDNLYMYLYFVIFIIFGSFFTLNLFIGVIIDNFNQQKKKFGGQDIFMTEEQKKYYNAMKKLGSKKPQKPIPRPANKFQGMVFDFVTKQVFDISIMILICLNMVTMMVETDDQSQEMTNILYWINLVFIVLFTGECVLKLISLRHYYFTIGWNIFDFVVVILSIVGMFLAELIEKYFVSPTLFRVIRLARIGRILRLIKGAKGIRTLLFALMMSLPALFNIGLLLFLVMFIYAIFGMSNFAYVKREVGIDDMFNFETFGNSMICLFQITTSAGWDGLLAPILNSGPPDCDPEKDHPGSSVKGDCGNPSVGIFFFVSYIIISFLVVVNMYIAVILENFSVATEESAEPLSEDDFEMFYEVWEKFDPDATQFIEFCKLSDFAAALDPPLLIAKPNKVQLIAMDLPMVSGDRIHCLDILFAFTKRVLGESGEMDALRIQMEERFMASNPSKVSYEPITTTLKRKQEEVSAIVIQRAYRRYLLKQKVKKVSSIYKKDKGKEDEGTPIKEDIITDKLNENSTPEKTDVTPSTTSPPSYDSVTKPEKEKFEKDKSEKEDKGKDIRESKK

T1 sequence (P08684 whole entry): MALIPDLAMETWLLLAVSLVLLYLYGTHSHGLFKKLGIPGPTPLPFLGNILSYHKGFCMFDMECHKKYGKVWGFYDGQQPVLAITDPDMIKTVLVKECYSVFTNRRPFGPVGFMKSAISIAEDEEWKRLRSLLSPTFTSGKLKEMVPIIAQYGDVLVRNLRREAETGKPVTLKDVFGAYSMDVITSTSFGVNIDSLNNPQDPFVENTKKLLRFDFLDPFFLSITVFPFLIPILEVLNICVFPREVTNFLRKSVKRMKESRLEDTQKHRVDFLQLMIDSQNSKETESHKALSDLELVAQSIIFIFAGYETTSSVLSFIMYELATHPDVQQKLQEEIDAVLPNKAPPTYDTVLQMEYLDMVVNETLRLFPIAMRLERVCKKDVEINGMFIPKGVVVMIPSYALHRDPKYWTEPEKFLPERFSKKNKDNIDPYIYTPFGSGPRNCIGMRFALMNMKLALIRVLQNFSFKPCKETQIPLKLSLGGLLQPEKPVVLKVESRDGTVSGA
Chain of CYP2C19 (P33261 whole entry): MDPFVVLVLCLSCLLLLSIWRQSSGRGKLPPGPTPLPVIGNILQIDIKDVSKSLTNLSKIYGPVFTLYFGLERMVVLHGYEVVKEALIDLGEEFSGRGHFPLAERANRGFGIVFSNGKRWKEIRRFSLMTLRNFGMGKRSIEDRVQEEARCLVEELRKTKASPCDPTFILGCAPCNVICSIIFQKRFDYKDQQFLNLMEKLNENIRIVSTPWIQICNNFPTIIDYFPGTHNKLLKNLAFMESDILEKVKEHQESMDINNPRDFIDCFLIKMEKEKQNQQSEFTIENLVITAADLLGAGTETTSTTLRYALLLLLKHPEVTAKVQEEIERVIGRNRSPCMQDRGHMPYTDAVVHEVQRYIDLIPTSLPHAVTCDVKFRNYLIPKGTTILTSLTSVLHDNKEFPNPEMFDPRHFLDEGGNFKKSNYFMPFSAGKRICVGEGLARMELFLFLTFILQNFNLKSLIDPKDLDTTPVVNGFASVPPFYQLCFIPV
Chain of SK-N-BE2C (Nav1.8) (Q9Y5Y9 whole entry, looked up): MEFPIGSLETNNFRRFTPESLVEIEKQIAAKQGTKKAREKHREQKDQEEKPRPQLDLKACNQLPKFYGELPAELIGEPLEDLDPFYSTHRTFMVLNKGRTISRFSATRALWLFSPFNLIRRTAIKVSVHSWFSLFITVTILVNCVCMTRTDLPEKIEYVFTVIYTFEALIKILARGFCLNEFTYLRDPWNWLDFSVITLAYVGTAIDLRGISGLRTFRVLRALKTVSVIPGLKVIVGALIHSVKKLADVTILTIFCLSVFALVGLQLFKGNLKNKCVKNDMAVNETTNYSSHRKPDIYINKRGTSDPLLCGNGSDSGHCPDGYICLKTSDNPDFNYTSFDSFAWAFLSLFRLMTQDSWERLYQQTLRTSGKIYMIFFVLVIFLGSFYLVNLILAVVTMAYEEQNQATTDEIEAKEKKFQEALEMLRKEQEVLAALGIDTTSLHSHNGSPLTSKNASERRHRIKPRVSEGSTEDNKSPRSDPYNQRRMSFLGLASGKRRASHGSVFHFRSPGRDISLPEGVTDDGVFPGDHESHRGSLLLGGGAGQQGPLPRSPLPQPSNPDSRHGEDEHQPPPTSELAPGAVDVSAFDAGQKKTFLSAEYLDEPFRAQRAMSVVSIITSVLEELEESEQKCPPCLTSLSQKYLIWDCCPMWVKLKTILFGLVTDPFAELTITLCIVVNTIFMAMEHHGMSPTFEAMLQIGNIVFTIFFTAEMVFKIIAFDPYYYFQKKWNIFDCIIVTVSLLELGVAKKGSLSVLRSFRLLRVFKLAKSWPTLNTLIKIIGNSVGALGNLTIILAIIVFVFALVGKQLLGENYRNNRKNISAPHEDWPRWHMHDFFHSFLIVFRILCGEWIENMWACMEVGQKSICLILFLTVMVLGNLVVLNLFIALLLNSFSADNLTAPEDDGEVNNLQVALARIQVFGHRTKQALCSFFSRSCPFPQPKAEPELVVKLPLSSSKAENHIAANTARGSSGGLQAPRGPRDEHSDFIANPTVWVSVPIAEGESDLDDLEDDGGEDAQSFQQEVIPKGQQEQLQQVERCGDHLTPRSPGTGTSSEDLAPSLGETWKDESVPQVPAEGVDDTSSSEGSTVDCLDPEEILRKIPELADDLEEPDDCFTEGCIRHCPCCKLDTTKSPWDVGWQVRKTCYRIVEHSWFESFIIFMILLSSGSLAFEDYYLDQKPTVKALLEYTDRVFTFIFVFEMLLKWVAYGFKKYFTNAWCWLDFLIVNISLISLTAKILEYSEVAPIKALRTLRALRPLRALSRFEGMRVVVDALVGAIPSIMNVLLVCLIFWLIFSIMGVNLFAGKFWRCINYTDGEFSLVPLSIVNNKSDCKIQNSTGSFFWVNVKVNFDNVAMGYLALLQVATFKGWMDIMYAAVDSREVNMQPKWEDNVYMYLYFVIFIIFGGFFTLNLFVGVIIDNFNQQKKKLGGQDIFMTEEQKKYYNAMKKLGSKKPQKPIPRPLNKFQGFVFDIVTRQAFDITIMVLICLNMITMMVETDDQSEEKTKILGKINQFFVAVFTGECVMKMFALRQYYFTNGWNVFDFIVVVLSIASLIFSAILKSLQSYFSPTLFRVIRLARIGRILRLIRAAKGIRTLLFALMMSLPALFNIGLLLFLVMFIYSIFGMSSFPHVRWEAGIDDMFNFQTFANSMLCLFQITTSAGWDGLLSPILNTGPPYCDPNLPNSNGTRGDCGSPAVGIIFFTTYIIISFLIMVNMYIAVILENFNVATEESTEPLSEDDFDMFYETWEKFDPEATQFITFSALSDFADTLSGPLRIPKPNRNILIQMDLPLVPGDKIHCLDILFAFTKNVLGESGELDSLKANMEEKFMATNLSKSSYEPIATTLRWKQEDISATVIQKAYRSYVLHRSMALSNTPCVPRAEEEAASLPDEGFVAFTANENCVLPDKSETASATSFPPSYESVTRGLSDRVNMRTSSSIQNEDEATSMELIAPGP

Structure (SMILES)	IC50 (sodium channel) [nM]	Ki [1] [nM]	inhibition at 10 µM (CYP3A4) [%]	melting point [°C]	other results
NC(=O)COc1ccc(CN2C(=O)C3(COc4cc5c(cc43)OCCO5)c3ccccc32)cc1 (stereo not shown) [Example 13.2, 2-{4-[(2′-oxo-2,3-dihydrospiro[furo[2,3-g][1,4]benzodioxine-8,3′-indol]-1′(2′H)-yl)methyl]phenoxy}acetamide]	1 to 100	> 300	> 50	225 to 227	
CN(C)CCOc1ccc(CN2C(=O)C3(COc4cc5c(cc43)OCCO5)c3ccccc32)cc1 (stereo not shown) [Example 13.4, 1′-{4-[2-(dimethylamino)ethoxy]benzyl}-2,3-dihydrospiro[furo[2,3-g][1,4]benzodioxine-8,3′-indol]-2′(1′H)-one]	100 to 1000	< 300	> 50	77 to 79	
CCOC(=O)COc1cccc(CN2C(=O)C3(COc4cc5c(cc43)CCO5)c3ccccc32)c1 (stereo not shown) [Example 14, ethyl {3-[(2′-oxo-5,6-dihydrospiro[benzo[1,2-b:5,4-b′]difuran-3,3′-indol]-1′(2′H)-yl)methyl]phenoxy}acetate]	100 to 1000	> 300	> 50	45 to 46	
O=C1N(Cc2ccc(OCCO)cc2)c2ccccc2C12COc1cc3c(cc12)OCCO3 (stereo not shown) [Example 15.3, 1′-[4-(2-hydroxyethoxy)benzyl]-2,3-dihydrospiro[furo[2,3-g][1,4]benzodioxine-8,3′-indol]-2′(1′H)-one]		> 300	< 50	196 to 197	
CC(=O)N1CCN(c2ccc(OCC3COC(Cn4ccnc4)(c4ccc(Cl)cc4Cl)O3)cc2)CC1 (stereo not shown) [Ketoconazole]					% Inhibition in 10 μM assay (CYP2C19): 65 +/− 10%
Nc1ccc(S(=O)(=O)Nc2ccnn2-c2ccccc2)cc1 [Sulfaphenazole]					% Inhibition in 10 μM assay (CYP2C9): 50 +/− 15%
NC1=N[C@H](O)[C@H]2[C@H]3O[C@]4(O)O[C@@H]([C@@H](O)[C@@]2(N1)[C@@H]4O)[C@]3(O)CO [TTX, tetrodotoxin]					block of increase in [14C] guanidine influx (CHO-K1 (Nav1.4)): completely blocked using TTX.; block of increase in [14C] guanidine influx (L6 (Nav1.4 and 1.5)): partially blocked by TTX at 100 nM; block of increase in [14C] guanidine influx [2]: background was partially blocked; block of increase in [14C] guanidine influx (SK-N-BE2C (Nav1.8)): TTX partially blocked influx; block of increase in [14C] guanidine influx (PC12 (Nav1.2)): guanidine influx was completely
